Results on four molecules are retold here after ChEMBL document CHEMBL1148924, “Marine sesquiterpenoids that inhibit the lyase activity of DNA polymerase beta” (J Nat Prod, 2004).

Molecules are shown by their SMILES. The source made the active and inactive calls. The calls are words filed in the database; no cut-off is given here.

Test [1] deals with T1, M-phase inducer phosphatase 2 (Homo sapiens, UniProt P30305).
T1 sequence (P30305 whole entry): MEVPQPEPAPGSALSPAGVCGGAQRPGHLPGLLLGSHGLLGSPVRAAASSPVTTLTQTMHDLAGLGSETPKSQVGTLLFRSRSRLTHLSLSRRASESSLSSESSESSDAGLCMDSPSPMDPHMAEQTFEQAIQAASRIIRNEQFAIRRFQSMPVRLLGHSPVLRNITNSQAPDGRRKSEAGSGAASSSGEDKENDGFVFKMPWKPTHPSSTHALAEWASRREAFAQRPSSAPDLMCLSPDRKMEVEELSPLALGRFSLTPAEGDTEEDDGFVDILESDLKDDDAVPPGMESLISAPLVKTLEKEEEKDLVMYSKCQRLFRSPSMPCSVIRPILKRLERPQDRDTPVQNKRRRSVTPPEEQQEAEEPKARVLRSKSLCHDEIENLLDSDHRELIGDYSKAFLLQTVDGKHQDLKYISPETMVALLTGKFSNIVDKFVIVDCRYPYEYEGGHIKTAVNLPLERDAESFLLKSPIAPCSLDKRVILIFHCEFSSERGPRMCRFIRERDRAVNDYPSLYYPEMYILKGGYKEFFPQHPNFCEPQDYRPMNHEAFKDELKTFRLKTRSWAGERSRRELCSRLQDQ
As to the kind of experiment: (§1) Inhibition of GST-fused human recombinant Cdc25B2 (275-539) catalytic domain.

For the next test, the system named is A2780. As to the kind of experiment: Cytotoxicity against human A2780 cells. It counts as functional, cell-based.
Another test concerns the target DNA polymerase beta (Homo sapiens, UniProt P06746). As to the kind of experiment: Inhibition of DNA polymerase beta lyase activity.
Test [2] has as its target T2, M-phase inducer phosphatase 2 (Homo sapiens) (UniProt P30305).
T2 sequence (whole entry): T1 sequence (P30305 whole entry)
The test is described as §1.

Turning to `C=C1CCC[C@H]2[C@](C)(CC3=C(O)C(=O)C=C(OC)C3=O)[C@@H](C)CC[C@]12C` [ILIMAQUINONE], the IC50 in test [1] was 92 µM; in the test on A2780, 10.9 µM; against DNA polymerase beta, 45.2 µM.

Regarding `C=C1CCC[C@H]2[C@](C)(Cc3cc(C(=O)OC)ccc3O)[C@@H](C)CC[C@]12C`, the outcome (in test [2]; in the test with A2780; at DNA polymerase beta) was inactive.

In the case of `O=c1ccn([C@H]2C[C@H](O)[C@@H](CO)O2)c(=O)[nH]1`, the outcome (in test [2]; with A2780; on DNA polymerase beta) was inactive.

As to `C=C1CCC[C@H]2[C@](C)(Cc3cc(C(=O)OC)ccc3OCC=C(C)C)[C@@H](C)CC[C@]12C`, the result (in test [2]; in the test with A2780; at DNA polymerase beta) was inactive.

A word on the IC50: it is the concentration at which inhibition is half-maximal.
